Counter-ions that a name gives are not always drawn.

For the test, the target named is T1, human NHE3 (Homo sapiens, UniProt P48764).
T1 sequence (P48764 26-834): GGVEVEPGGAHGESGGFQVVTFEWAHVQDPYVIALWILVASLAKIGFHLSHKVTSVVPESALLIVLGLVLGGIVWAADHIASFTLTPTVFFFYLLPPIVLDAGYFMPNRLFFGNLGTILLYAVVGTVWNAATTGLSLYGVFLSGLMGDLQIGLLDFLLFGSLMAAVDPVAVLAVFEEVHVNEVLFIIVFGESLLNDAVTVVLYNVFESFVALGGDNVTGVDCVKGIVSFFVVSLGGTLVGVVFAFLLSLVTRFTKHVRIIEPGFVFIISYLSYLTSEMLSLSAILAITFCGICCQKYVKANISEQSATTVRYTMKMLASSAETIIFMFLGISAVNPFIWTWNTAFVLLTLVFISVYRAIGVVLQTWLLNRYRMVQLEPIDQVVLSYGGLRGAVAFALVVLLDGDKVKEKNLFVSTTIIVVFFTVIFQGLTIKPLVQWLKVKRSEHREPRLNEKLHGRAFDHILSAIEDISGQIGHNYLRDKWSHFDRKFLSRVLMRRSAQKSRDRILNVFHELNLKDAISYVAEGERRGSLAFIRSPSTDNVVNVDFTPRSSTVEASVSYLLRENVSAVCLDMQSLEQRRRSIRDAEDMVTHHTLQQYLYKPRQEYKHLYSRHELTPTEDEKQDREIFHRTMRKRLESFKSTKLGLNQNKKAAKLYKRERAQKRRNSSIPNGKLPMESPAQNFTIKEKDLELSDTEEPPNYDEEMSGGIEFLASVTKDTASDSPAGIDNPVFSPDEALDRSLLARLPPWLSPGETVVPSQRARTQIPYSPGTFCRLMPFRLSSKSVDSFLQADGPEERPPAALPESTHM
Nature of the test: NHE3 inhibition test (recovery of intracellular pH in cell line stably expressing human NHE3). The test is classed as cell-based. The following applies: OK cells deficient in endogenous NHE stably expressing human NHE3; BCECF fluorescence, initial rate of pH recovery; read-out: human NHE3 inhibitory activity IC50. A digest of the protocol: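 Opossum kidney cells lacking endogenous NHE, stably expressing human NHE3, loaded with BCECF-AM and acid-loaded by NH4Cl washout. Compound in Na-free buffer, then Na-containing buffer (pH 7.4) added; initial pH-recovery rate by BCECF fluorescence, IC50 versus no-compound recovery.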
For the compound `CN1Cc2c(Cl)cc(Cl)cc2[C@H](c2cccc(-c3ccc(NCCOCCOCCNC(=O)COCC(=O)NCCOCCOCCNc4ccc(-c5cccc([C@@H]6CN(C)Cc7c(Cl)cc(Cl)cc76)c5)cn4)nc3)c2)C1` [Example 8-7, 1-[(5-{3-[(4S)-6,8-Dichloro-2-methyl-1,2,3,4-tetrahydroisoquinolin-4-yl]phenyl}pyridin-2-yl)amino]-N-[2-(2-{2-[(5-{3-[(4S)-6,8-dichloro-2-methyl-1,2,3,4-tetrahydroisoquinolin-4-yl]phenyl}pyridin-2-yl)amino]ethoxy}ethoxy)ethyl]-10-oxo-3,6,12-trioxa-9-azatetradecan-14-amide hydrochloride], the IC50 (in general, the point on the concentration scale where inhibition reaches its midpoint) came out at 41.7 nM. Turning to `CN1Cc2c(Cl)cc(Cl)cc2[C@H](c2cccc(-c3cn(CCOCCOCCOCCNC(=O)[C@@H](O)[C@H](O)C(=O)NCCOCCOCCOCCn4cc(-c5cccc([C@@H]6CN(C)Cc7c(Cl)cc(Cl)cc76)c5)nn4)nn3)c2)C1` [Example 8-9, (2S,3S)-N,N′-Bis[2-(2-{2-[2-(4-{3-[(4S)-6,8-dichloro-2-methyl-1,2,3,4-tetrahydroisoquinolin-4-yl]phenyl}-1H-1,2,3-triazol-1-yl)ethoxy]ethoxy}ethoxy)ethyl]-2,3-dihydroxybutanediamide hydrochloride], the IC50 was 3.6 nM.

With `CN1Cc2c(Cl)cc(Cl)cc2[C@H](c2cccc(-c3cc(NCCOCCOCCOCCNC(=O)[C@H](O)[C@@H](O)C(=O)NCCOCCOCCOCCNc4cc(-c5cccc([C@@H]6CN(C)Cc7c(Cl)cc(Cl)cc76)c5)ncn4)ncn3)c2)C1` [Example 8-10, (2R,3R)-N,N′-Bis{2-[2-(2-{2-[(6-{3-[(4S)-6,8-dichloro-2-methyl-1,2,3,4-tetrahydroisoquinolin-4-yl]phenyl}pyrimidin-4-yl)amino]ethoxy}ethoxy)ethoxy]ethyl}-2,3-dihydroxybutanediamide hydrochloride], the IC50 amounted to 3.2 nM. As to `CN1Cc2c(Cl)cc(Cl)cc2[C@@H](c2cccc(-c3cc(NCCOCCOCCOCCNC(=O)COCC(=O)NCCOCCOCCOCCNc4cc(-c5cccc([C@@H]6CN(C)Cc7c(Cl)cc(Cl)cc76)c5)ncn4)ncn3)c2)C1` [Example 8-11, 1-[(6-{3-[(4R)-6,8-Dichloro-2-methyl-1,2,3,4-tetrahydroisoquinolin-4-yl]phenyl}pyrimidin-4-yl)amino]-N-{2-[2-(2-{2-[(6-{3-[(4S)-6,8-dichloro-2-methyl-1,2,3,4-tetrahydroisoquinolin-4-yl]phenyl}pyrimidin-4-yl)amino]ethoxy}ethoxy)ethoxy]ethyl}-13-oxo-3,6,9,15-tetraoxa-12-azaheptadecan-17-amide hydrochloride], the IC50 was determined as 7.5 nM. Regarding `CN1Cc2c(Cl)cc(Cl)cc2[C@H](c2cccc(-c3cc(NCCOCCOCCOCCNC(=O)CCCCC(=O)NCCOCCOCCOCCNc4cc(-c5cccc([C@@H]6CN(C)Cc7c(Cl)cc(Cl)cc76)c5)ncn4)ncn3)c2)C1` [Example 8-13, N,N′-Bis{2-[2-(2-{2-[(6-{3-[(4S)-6,8-dichloro-2-methyl-1,2,3,4-tetrahydroisoquinolin-4-yl]phenyl}pyrimidin-4-yl)amino]ethoxy}ethoxy)ethoxy]ethyl}hexanediamide hydrochloride], the IC50 came out at 10.6 nM.

As to `CN1Cc2c(Cl)cc(Cl)cc2[C@H](c2cccc(-c3nnc(CCOCCOCCOCCNC(=O)[C@H](O)[C@@H](O)C(=O)NCCOCCOCCOCCc4nnc(-c5cccc([C@@H]6CN(C)Cc7c(Cl)cc(Cl)cc76)c5)[nH]4)[nH]3)c2)C1` [Example 8-15, (2R,3R)-N,N′-Bis[2-(2-{2-[2-(5-{3-[(4S)-6,8-dichloro-2-methyl-1,2,3,4-tetrahydroisoquinolin-4-yl]phenyl}-4H-1,2,4-triazol-3-yl)ethoxy]ethoxy}ethoxy)ethyl]-2,3-dihydroxybutanediamide diformate], the IC50 stood at 1.9 nM. Turning to `CN1Cc2c(Cl)cc(Cl)cc2[C@H](c2cccc(-c3cnnc(NCCOCCOCCOCCNC(=O)[C@H](O)[C@@H](O)C(=O)NCCOCCOCCOCCNc4cc(-c5cccc([C@@H]6CN(C)Cc7c(Cl)cc(Cl)cc76)c5)cnn4)c3)c2)C1` [Example 8-19, (2R,3R)-N,N′-Bis{2-[2-(2-{2-[(5-{3-[(4S)-6,8-dichloro-2-methyl-1,2,3,4-tetrahydroisoquinolin-4-yl]phenyl}pyridazin-3-yl)amino]ethoxy}ethoxy)ethoxy]ethyl}-2,3-dihydroxybutanediamide tetrahydrochloride], the IC50 worked out at 6.8 nM. For `CN1Cc2c(Cl)cc(Cl)cc2[C@H](c2cccc(-c3cnc(NCCOCCOCCOCCNC(=O)[C@H](O)[C@@H](O)C(=O)NCCOCCOCCOCCNc4ncc(-c5cccc([C@@H]6CN(C)Cc7c(Cl)cc(Cl)cc76)c5)cn4)nc3)c2)C1` [Example 8-21, (2R,3R)-N,N′-Bis{2-[2-(2-{2-[(5-{3-[(4S)-6,8-dichloro-2-methyl-1,2,3,4-tetrahydroisoquinolin-4-yl]phenyl}pyrimidin-2-yl)amino]ethoxy}ethoxy)ethoxy]ethyl}-2,3-dihydroxybutanediamide formate], the IC50 is 3.2 nM. For `CN1Cc2c(Cl)cc(Cl)cc2[C@H](c2cccc(-c3cc(OCCOCCOCCOCCNC(=O)CCC(=O)NCCOCCOCCOCCOc4cc(-c5cccc([C@@H]6CN(C)Cc7c(Cl)cc(Cl)cc76)c5)ncn4)ncn3)c2)C1` [Example 8-22, N,N′-Bis{2-[2-(2-{2-[(6-{3-[(4S)-6,8-dichloro-2-methyl-1,2,3,4-tetrahydroisoquinolin-4-yl]phenyl}pyrimidin-4-yl)oxy]ethoxy}ethoxy)ethoxy]ethyl}butanediamide hydrochloride], the half-inhibitory concentration (IC50) amounted to 10.5 nM. As for `CN1Cc2c(Cl)cc(Cl)cc2[C@H](c2cccc(-c3cc(OCCOCCOCCOCCNC(=O)CCCCC(=O)NCCOCCOCCOCCOc4cc(-c5cccc([C@@H]6CN(C)Cc7c(Cl)cc(Cl)cc76)c5)ncn4)ncn3)c2)C1` [Example 8-23, N,N′-Bis{2-[2-(2-{2-[(6-{3-[(4S)-6,8-dichloro-2-methyl-1,2,3,4-tetrahydroisoquinolin-4-yl]phenyl}pyrimidin-4-yl)oxy]ethoxy}ethoxy)ethoxy]ethyl}hexanediamide hydrochloride], the 50% inhibitory concentration (IC50) is 4.7 nM. For `CN1Cc2c(Cl)cc(Cl)cc2[C@H](c2cccc(-c3nnc(CCOCCOCCOCCNC(=O)[C@@H](O)[C@H](O)[C@H](O)[C@@H](O)C(=O)NCCOCCOCCOCCc4nnc(-c5cccc([C@@H]6CN(C)Cc7c(Cl)cc(Cl)cc76)c5)[nH]4)[nH]3)c2)C1` [Example 8-24, (2R,3S,4R,5S)-N,N′-Bis[2-(2-{2-[2-(5-{3-[(4S)-6,8-dichloro-2-methyl-1,2,3,4-tetrahydroisoquinolin-4-yl]phenyl}-4H-1,2,4-triazol-3-yl)ethoxy]ethoxy}ethoxy)ethyl]-2,3,4,5-tetrahydroxyhexanediamide hydrochloride], the IC50 worked out at 3.4 nM.

Consider `CN1Cc2c(Cl)cc(Cl)cc2[C@H](c2cccc(-c3nnn(CCOCCOCCOCCNC(=O)[C@@H](O)[C@H](O)[C@H](O)[C@@H](O)C(=O)NCCOCCOCCOCCn4nnc(-c5cccc([C@@H]6CN(C)Cc7c(Cl)cc(Cl)cc76)c5)n4)n3)c2)C1` [Example 8-25, (2R,3S,4R,5S)-N,N′-Bis[2-(2-{2-[2-(5-{3-[(4S)-6,8-dichloro-2-methyl-1,2,3,4-tetrahydroisoquinolin-4-yl]phenyl}-2H-tetrazol-2-yl)ethoxy]ethoxy}ethoxy)ethyl]-2,3,4,5-tetrahydroxyhexanediamide hydrochloride], for which the IC50 was found to be 0.2 nM. For `CN1Cc2c(Cl)cc(Cl)cc2[C@H](c2cccc(-c3cc(NCCOCCOCCOCCNC(=O)[C@@H](O)[C@H](O)[C@H](O)[C@@H](O)C(=O)NCCOCCOCCOCCNc4cc(-c5cccc([C@@H]6CN(C)Cc7c(Cl)cc(Cl)cc76)c5)ncn4)ncn3)c2)C1` [Example 8-26, (2R,3S,4R,5S)-N,N′-Bis{2-[2-(2-{2-[(6-{3-[(4S)-6,8-dichloro-2-methyl-1,2,3,4-tetrahydroisoquinolin-4-yl]phenyl}pyrimidin-4-yl)amino]ethoxy}ethoxy)ethoxy]ethyl}-2,3,4,5-tetrahydroxyhexanediamide hydrochloride], the half-maximal inhibitory concentration (IC50) worked out at 2.2 nM. Regarding `CN1Cc2c(Cl)cc(Cl)cc2[C@H](c2cccc(-c3cn(CCOCCOCCOCCNC(=O)CN(CCN(CC(=O)NCCOCCOCCOCCn4cc(-c5cccc([C@@H]6CN(C)Cc7c(Cl)cc(Cl)cc76)c5)nn4)CC(=O)NCCOCCOCCOCCn4cc(-c5cccc([C@@H]6CN(C)Cc7c(Cl)cc(Cl)cc76)c5)nn4)CC(=O)NCCOCCOCCOCCn4cc(-c5cccc([C@@H]6CN(C)Cc7c(Cl)cc(Cl)cc76)c5)nn4)nn3)c2)C1` [Example 9-1, hydrochloride], the IC50 is 13.1 nM.
